Data taken from patent US20140086938A1, “METHODS OF INHIBITING TUMOR GROWTH USING TTK ANTAGONISTS” (University Health Network, priority 2007, published 2014).

Experiments:
tumors = details: TNP-470 below maximum tolerated dose with cyclophophamide 170 mg/kg, every 6 days; cited from earlier work
Hs578T = experiment: SRB cell viability after siRNA transfection; format: cell-based, human; details: 40 nM siRNA, day 5 post-transfection, normalized over siCONTROL
Description: (§1) Different normal breast and breast cancer cell lines were used for siRNA transfection. Cells were seeded at various concentrations, ranging from 1500 to 6000 per well according to cell growth rate, into 96 well plates. 40 nM individual siRNAs or 40 nM siRNA pool including four individual siRNAs at 10 nM each were transfected into cells using Lipofectamine-2000 24 hrs after cell seeding. Cells were then incubated at 37° C. for five days before cell viability assay were conducted.
(§2) SRB assay was performed to assess cell survival. SRB is a water-soluble dye that binds to the basic amino acids of the cellular proteins. Thus, colorimetric measurement of the bound dye provides an estimate of the total protein mass and is related to the cell number. The cells were fixed in situ by gently aspirating off the culture media and adding 50 μl ice cold 10% Tri-chloroacetic Acid (TCA) per well and incubate at 4° C. for 30-60 min. The plates were washed with tap water five times and allowed to air dry for 5 min. 50 μl of 0.4% (w/v) Sulforhodamine B solution in 1% (v/v) acetic acid was added per well and incubated for 30 min at RT for staining. Following staining, plates were washed four times with 1% acetic acid to remove any unbound dye and then allowed to air dry for 5 min. The stain was solubilized with 100 μl of 10 mM Tris pH 10.5 per well. Absorbance was read at 570 mn. The cell survival percentage after each siRNA(s) knock down was calculated over the non-silencing control siCTRL or siPOOL as well as siTOX as a transfection efficiency control.
(§3) To assess the effects of TTK knockdown on the viability of breast cancer cells, various breast cancer cell lines were transfected with each of the four TTK-targeting siRNAs individually, the pooled siRNA containing all four of the TTK-targeting siRNAs, or the siCONTROL siRNA, all at a concentration of 40 nM. At day 5 post-transfection, the viability of the cells was determined using the SRB assay described herein.

MDA-MB-435 = experiment: SRB cell viability after siRNA transfection; format: cell-based, human; details: 40 nM siRNA, day 5 post-transfection, normalized over siCONTROL
Description: as §1, §2, §3

MDA-MB-330 = experiment: SRB cell viability after siRNA transfection; format: cell-based, human; details: 40 nM siRNA, day 5 post-transfection, normalized over siCONTROL
Description: as §1, §2, §3

T47D = experiment: SRB cell viability after siRNA transfection; format: cell-based, human; details: 40 nM siRNA, day 5 post-transfection, normalized over siCONTROL
Description: as §1, §2, §3

BT474 = experiment: SRB cell viability after siRNA transfection; format: cell-based, human; details: 40 nM siRNA, day 5 post-transfection, normalized over siCONTROL
Description: as §1, §2, §3

SKBr-3 = experiment: SRB cell viability after siRNA transfection; format: cell-based, human; details: 40 nM siRNA, day 5 post-transfection, normalized over siCONTROL
Description: as §1, §2, §3

HCC1419 = experiment: SRB cell viability after siRNA transfection; format: cell-based, human; details: 40 nM siRNA, day 5 post-transfection, normalized over siCONTROL
Description: as §1, §2, §3

MDA-MB-468 = experiment: SRB cell viability after siRNA transfection; format: cell-based, human; details: 40 nM siRNA, day 5 post-transfection, normalized over siCONTROL
Description: as §1, §2, §3

MDA-MB-453 = experiment: SRB cell viability after siRNA transfection; format: cell-based, human; details: 40 nM siRNA, day 5 post-transfection, normalized over siCONTROL
Description: as §1, §2, §3

MDA-MB-231 = experiment: SRB cell viability after siRNA transfection; format: cell-based, human; details: 40 nM siRNA, day 5 post-transfection, normalized over siCONTROL
Description: as §1, §2, §3

CAMA-1 = experiment: SRB cell viability after siRNA transfection; format: cell-based, human; details: 40 nM siRNA, day 5 post-transfection, normalized over siCONTROL
Description: as §1, §2, §3

MCF-7 = experiment: SRB cell viability after siRNA transfection; format: cell-based, human; details: 40 nM siRNA, day 5 post-transfection, normalized over siCONTROL
Description: as §1, §2, §3

[1] = test system: T-47D breast cancer cells; experiment: Colony formation in soft agar after siRNA transfection; format: cell-based, human; details: 40 nM siRNA, relative to siCONTROL, two independent experiments
Description: Cells were transfected with 40 nM individual siRNAs, 40 nM siRNA pool including four individual siRNAs at 10 nM each or 40 nM non-silencing control siCONTROL using Lipofectamine 2000 Transfection Reagent (Invitrogen Corporation), mixed with culture medium containing 0.7% agar in 6-well plates and cultured at 37° C. After 2 weeks, the top layer of the culture was stained with 0.2% p-iodonitrotetrazolium violet and colonies were counted using a Sorcerer Colony Counter (Optomax).
To determine the effects of siRNA-mediated knockdown of TTK gene expression on anchorage-independent cell growth in breast cancer cells, T-47D breast cancer cell line was transfected with either the siRNA#2 or siRNA#3 TTK-targeting siRNA, the siRNA POOL containing 4 TTK-targeting siRNAs or the siCONTROL non-targeting siRNA. Following transfection colony formation in soft agar was assessed.

MCF-7 (Luminal) = experiment: Cell cycle profile by flow cytometry after siRNA transfection; format: cell-based, human; details: for apoptosis, indicated by increased G2/M and <G1 populations: MCF7 breast cancer cells, flow cytometry, vs siCONTROL; for <G1 / G2/M: MCF-7, 40 nM siRNA, day 3 post-transfection; for <G1: siCONTROL (Neg. Control) 2.11; for G2/M: siCONTROL (Neg. Control) 16.17
Description: (§4) To assess the effects of TTK knockdown on the physiology of normal breast and breast cancer cell lines, luminal (MCF7) or basal-like (MDA-MB-435, MDA-MB-468) breast cancer cell lines, a lung cancer cell line (A549) and a normal breast cell line (184A1) each were transfected with 40 nM of TTK-targeting siRNA #2, siRNA #3, the pooled siRNA containing all four of the TTK-targeting siRNAs, or the siCONTROL siRNA. At day 3 post-transfection, the cell cycle profile of the transfected cells was analyzed by flow cytometry to determine the effects of TTK knockdown on cell cycle arrest and cell death. Depletion of TTK in cells transfected with TTK-targeting siRNAs caused significant cell cycle arrest and cell death.

MDA-MB-435 (Basal) = experiment: as above; format: cell-based, human; details: 40 nM siRNA, day 3 post-transfection; for <G1: siCONTROL (Neg. Control) 0.85; for G2/M: siCONTROL (Neg. Control) 18.77
Description: as §4

A549 (Lung) = experiment: as above; format: cell-based, human; details: 40 nM siRNA, day 3 post-transfection; for <G1: siCONTROL (Neg. Control) 0.84; for G2/M: siCONTROL (Neg. Control) 10.57
Description: as §4

184A1 (Normal) = experiment: as above; format: cell-based, human; details: 40 nM siRNA, day 3 post-transfection; for <G1: siCONTROL (Neg. Control) 1.03; for G2/M: siCONTROL (Neg. Control) 10.35
Description: as §4

MDA-MB-468 (Basal) = experiment: as above; format: cell-based, human; details: 40 nM siRNA, day 3 post-transfection; for <G1: siCONTROL (Neg. Control) 4.09; for G2/M: siCONTROL (Neg. Control) 20.59
Description: as §4

In the case of `CO[C@@H]1[C@H](OC(=O)NC(=O)CCl)CC[C@]2(CO2)[C@H]1[C@@]1(C)O[C@@H]1CC=C(C)C` [TNP-470], the tumor response (tumors) is given as “complete regression of the tumors”.

With “siRNA #4: siRNA targeting human TTK: 5′-GAUAAGAUCAUCCGACUUU-3′ (SEQ ID NO: 6) (listed as RNA, chemistry not given here)” the “% survival” value (Hs578T) was 1.16%, the “% survival” value (MDA-MB-435) was 0.93% and the “% survival” value (MDA-MB-330) was 0.72%. For the same compound, the “% survival” value (T47D) was 1.19%, the “% survival” value (BT474) was 0.90% and the “% survival” value (SKBr-3) was 0.91%. For the same compound, the “% survival” value (HCC1419) was 1.05%, the “% survival” value (MDA-MB-468) was 1.46% and the “% survival” value (MDA-MB-453) was 0.56%. For the same compound, the “% survival” value (MDA-MB-231) was 0.58%, the “% survival” value (CAMA-1) was 0.77% and the “% survival” value (MCF-7) was 0.63%.

For “siRNA #3: siRNA targeting human TTK: 5′-GCACGUGACUACUUUCAAA-3′ (SEQ ID NO: 5) (listed as RNA, chemistry not given here)”, the “% survival” value (Hs578T) was 0.53%, the “% survival” value (MDA-MB-435) was 0.60% and the “% survival” value (MDA-MB-330) was 0.63%. For the same compound, the “% survival” value (T47D) was 0.74%, the “% survival” value (BT474) was 0.83% and the “% survival” value (SKBr-3) was 0.49%. The “% survival” value (HCC1419) was 0.91%, the “% survival” value (MDA-MB-468) was 0.27% and the “% survival” value (MDA-MB-453) was 0.18%. For the same compound, the “% survival” value (MDA-MB-231) was 0.23%, the “% survival” value (CAMA-1) was 0.52% and the “% survival” value (MCF-7) was 0.23%. For the same compound, the “colonies formed in soft agar (number and size)” value (“colonies formed in soft agar” below) [1] was “reduction in the number of colonies”, the “colonies formed in soft agar” value ([1]; listed as siRNA#3) was “reduction in both colony size and number” and the “apoptosis, indicated by increased G2/M and <G1 populations” value (MCF-7 (Luminal)) was “caused apoptosis of the cancer cells”. The “<G1” value (MCF-7 (Luminal)) was 5.61, the G2/M (MCF-7 (Luminal)) was 65.23 and the “<G1” value (MDA-MB-435 (Basal)) was 2.66. The G2/M (MDA-MB-435 (Basal)) was 40.08, the “<G1” value (A549 (Lung)) was 11.38 and the G2/M (A549 (Lung)) was 24.87. The “<G1” value (184A1 (Normal)) was 3.92, the G2/M (184A1 (Normal)) was 17.49 and the “<G1” value (MDA-MB-468 (Basal)) was 11.12. For the same compound, the G2/M (MDA-MB-468 (Basal)) was 28.41.

For “siRNA #2: siRNA targeting human TTK: 5′-GGUAUUAACUGCCCAAGAA-3′ (SEQ ID NO: 4) (listed as RNA, chemistry not given here)”, the “% survival” value (Hs578T) was 1.25%, the “% survival” value (MDA-MB-435) was 0.25% and the “% survival” value (MDA-MB-330) was 0.38%. The “% survival” value (T47D) was 0.44%, the “% survival” value (BT474) was 0.66% and the “% survival” value (SKBr-3) was 0.34%. The “% survival” value (HCC1419) was 0.75%, the “% survival” value (MDA-MB-468) was 0.00% and the “% survival” value (MDA-MB-453) was −0.04%. For the same compound, the “% survival” value (MDA-MB-231) was −0.09%, the “% survival” value (CAMA-1) was 0.30% and the “% survival” value (MCF-7) was 0.27%. The “colonies formed in soft agar” value [1] was “reduction in the number of colonies”, the “colonies formed in soft agar” value ([1]; listed as siRNA#2) was “reduction in both colony size and number” and the “apoptosis, indicated by increased G2/M and <G1 populations” value (MCF-7 (Luminal)) was “caused apoptosis of the cancer cells”. For the same compound, the “<G1” value (MCF-7 (Luminal)) was 12.03, the G2/M (MCF-7 (Luminal)) was 25.18 and the “<G1” value (MDA-MB-435 (Basal)) was 4.69. For the same compound, the G2/M (MDA-MB-435 (Basal)) was 19.89, the “<G1” value (A549 (Lung)) was 6.03 and the G2/M (A549 (Lung)) was 20.58. The “<G1” value (184A1 (Normal)) was 5.35, the G2/M (184A1 (Normal)) was 27.75 and the “<G1” value (MDA-MB-468 (Basal)) was 15.10. It also gave a G2/M (MDA-MB-468 (Basal)) of 15.72.

For “siRNA #1: siRNA targeting human TTK: 5′-GCAAUACCUUGGAUGAUUA-3′ (SEQ ID NO: 3) (listed as RNA, chemistry not given here)”, the “% survival” value (Hs578T) was 1.02%, the “% survival” value (MDA-MB-435) was 0.78% and the “% survival” value (MDA-MB-330) was 0.31%. The “% survival” value (T47D) was 0.62%, the “% survival” value (BT474) was 0.64% and the “% survival” value (SKBr-3) was 0.32%. For the same compound, the “% survival” value (HCC1419) was 0.91%, the “% survival” value (MDA-MB-468) was 0.69% and the “% survival” value (MDA-MB-453) was 0.33%. For the same compound, the “% survival” value (MDA-MB-231) was 0.21%, the “% survival” value (CAMA-1) was 0.46% and the “% survival” value (MCF-7) was 0.27%.
